# Laboratory results reported in patent US20250066816A1, “ELECTROPORATION ENHANCERS FOR CRISPR-CAS SYSTEMS” (SIGMA-ALDRICH CO. LLC, priority 2021, published 2025).
# Test system: human HEK293 cells
# Assay: High fidelity SpCas9 RNP nucleofection, HEKSite4 target site, HEK293 cells, editing frequency by NGS
# Type: cell-based
# Conditions: at least one of the three dosages tested (Table 10), FIG. 6
# Description: A high fidelity SpCas9 protein (Catalog No. CAS9 Plus) and a synthetic single guide RNA (sgRNA) with the spacer sequence of 5′-[…]-3′ (SEQ ID NO: 46) targeting the human HEKSite4 locus were purchased from MilliporeSigma. Pentosan polysulfate sodium salt with a formula of (C5H6Na2O10S2)n was purchased from Selleckchem (Catalog No. S3500). A pentosan polysulfate solution was prepared by dissolving the chemical in water at 50 mg/ml. The molecular structural unit of the polyanionic polymer is as follows: […]
# Genomic DNA extracts from transfected cells were prepared using QuickExtract Solution. Targeted genomic region was PCR amplified with NGS primers using JumpStart™ Taq ReadyMix™ for Quantitative PCR Kit (MilliporeSigma) with the following cycling condition: 98° C./2 m; 98° C./15 s, 62° C./30 s, and 72° C./45 s for 34 cycles; 72° C./5 m.
# Primary PCR products were then reamplified with Illumina index primers using JumpStart™ Taq ReadyMix™ for Quantitative PCR Kit (MilliporeSigma) with the following cycling condition: 95° C./3 m; 95° C./30 s, 55° C./30 s, and 72° C./30 s for 8 cycles; 72° C./5 m. Indexed PCR products were purified with Select-a-Size DNA Clean & Concentrator kit (Zymo) and quantified by PicoGreen (ThermoFisher). […] The FASTQ files for each sample were analyzed for genome editing frequency. […]
substance,measurement,value
Collagen from rat tail,level of editing efficiency versus the control buffer,significantly higher
